# Assay results reported in patent US20250179032A1, “HETEROCYCLIC INHIBITORS OF GLUT9 FOR TREATMENT OF DISEASE” (HORIZON THERAPEUTICS IRELAND DAC, priority 2022, published 2025).
# Molecular target: T1, H. sapiens SLC2A9 variant 2 (GLUT9B) (Homo sapiens, UniProt Q9NRM0)
# T1 sequence (Q9NRM0 1-511 isoform Q9NRM0-2): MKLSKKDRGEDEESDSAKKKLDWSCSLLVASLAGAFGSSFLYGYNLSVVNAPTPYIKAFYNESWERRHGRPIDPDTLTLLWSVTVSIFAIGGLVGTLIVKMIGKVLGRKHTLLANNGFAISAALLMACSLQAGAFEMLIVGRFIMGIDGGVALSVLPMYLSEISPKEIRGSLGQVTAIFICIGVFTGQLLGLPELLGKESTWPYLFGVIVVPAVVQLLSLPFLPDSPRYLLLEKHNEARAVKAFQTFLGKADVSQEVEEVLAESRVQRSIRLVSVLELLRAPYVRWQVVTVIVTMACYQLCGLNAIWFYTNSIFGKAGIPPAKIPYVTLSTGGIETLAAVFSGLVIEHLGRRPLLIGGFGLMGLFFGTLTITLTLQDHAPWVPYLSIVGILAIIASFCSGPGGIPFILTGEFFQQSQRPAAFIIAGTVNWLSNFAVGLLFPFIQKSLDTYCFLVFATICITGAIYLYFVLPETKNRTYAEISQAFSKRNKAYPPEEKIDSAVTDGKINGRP
# Assay: GLUT9 functional assay: uric acid uptake in HEK293T cells, allantoin formation by MS/MS as proxy of GLUT9B inhibition
# Type: cell-based
# Details: 15 minute assay; HEK293T cells stably expressing GLUT9B and transiently A. oryzae uricase; uric acid 0.3 mM, 37° C.; read-out: 15 min IC50
# Outline: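 Inhibition of GLUT9B-mediated urate uptake read as reduced allantoin formation, measured by MS/MS against allantoin standards in HEK293T matrix with log-logistic fitting. Stable GLUT9B HEK293T cells carrying transfected A. oryzae uricase were incubated 15 or 60 min at 37° C with uric acid at Km (0.3 mM), pH 7.4 gluconate buffer.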
row,SMILES,IC50 [µM]
1,"Fc1cc(-c2ncc(COCC(F)(F)F)nc2N2CCC(c3nn[nH]n3)CC2)cc2ccoc12 [Compound 65, 3-(4-(2H-tetrazol-5-yl)piperidin-1-yl)-2-(7-fluorobenzofuran-5-yl)-5-((2,2,2-trifluoroethoxy)methyl)pyrazine]",< 0.5
2,"CS(=O)(=O)NC(=O)C1CCN(c2nc(COCC(F)(F)F)cnc2-c2cc(F)c3occc3c2)CC1 [Compound 66, 1-(3-(7-fluorobenzofuran-5-yl)-6-((2,2,2-trifluoroethoxy)methyl)pyrazin-2-yl)-N-(methylsulfonyl)piperidine-4-carboxamide]",0.5 to 2
3,"COCCOc1ccc(-c2ncc(COCC(F)(F)F)nc2N2CCC(C(=O)NS(C)(=O)=O)CC2)cc1 [Compound 67, 1-(3-(4-(2-methoxyethoxy)phenyl)-6-((2,2,2-trifluoroethoxy)methyl)pyrazin-2-yl)-N-(methylsulfonyl)piperidine-4-carboxamide]",> 2
4,"COCCOc1ccc(-c2ncc(COCC(F)(F)F)nc2N2CCC(c3nn[nH]n3)CC2)cc1 [Compound 68, 3-(4-(2H-tetrazol-5-yl)piperidin-1-yl)-2-(4-(2-methoxyethoxy)phenyl)-5-((2,2,2-trifluoroethoxy)methyl)pyrazine]",> 2
5,"Fc1cc(-c2ncc(CCC(F)(F)F)nc2N2CCC(c3nn[nH]n3)CC2)cc2ccoc12 [Compound 69, 3-(4-(2H-tetrazol-5-yl)piperidin-1-yl)-2-(7-fluorobenzofuran-5-yl)-5-(3,3,3-trifluoropropyl)pyrazine]",< 0.5
6,"COCCOc1ccc(-c2ncc(CCC(F)(F)F)nc2N2CCC(C(=O)NS(C)(=O)=O)CC2)cc1 [Compound 70, 1-(3-(4-(2-methoxyethoxy)phenyl)-6-(3,3,3-trifluoropropyl)pyrazin-2-yl)-N-(methylsulfonyl)piperidine-4-carboxamide]",0.5 to 2
7,"COCCOc1ccc(-c2ncc(CCC(F)(F)F)nc2N2CCC(c3nn[nH]n3)CC2)cc1 [Compound 71, 3-(4-(2H-tetrazol-5-yl)piperidin-1-yl)-2-(4-(2-methoxyethoxy)phenyl)-5-(3,3,3-trifluoropropyl)pyrazine]",< 0.5
8,"O=C(O)C1CCN(c2nc(COCC(F)(F)F)cnc2-c2cnc3c(c2)CCO3)CC1 [Compound 72, 1-(3-(2,3-dihydrofuro[2,3-b]pyridin-5-yl)-6-((2,2,2-trifluoroethoxy)methyl)pyrazin-2-yl)piperidine-4-carboxylic acid]",> 2
9,"O=C(O)C1CCN(c2nc(CCC3CC3)cnc2-c2cc(F)c3occc3c2)CC1 [Compound 73, 1-(6-(2-cyclopropylethyl)-3-(7-fluorobenzofuran-5-yl)pyrazin-2-yl)piperidine-4-carboxylic acid]",< 0.5
10,"COCCOc1ccc(-c2ncc(CCC3CC3)nc2N2CCC(C(=O)O)CC2)cc1 [Compound 74, 1-(6-(2-cyclopropylethyl)-3-(4-(2-methoxyethoxy)phenyl)pyrazin-2-yl)piperidine-4-carboxylic acid]",0.5 to 2
11,"O=C(O)C1CCN(c2nc(COCC(F)(F)F)cnc2-c2ccc(OC3CC3)cc2)CC1 [Compound 75, 1-(3-(4-cyclopropoxyphenyl)-6-((2,2,2-trifluoroethoxy)methyl)pyrazin-2-yl)piperidine-4-carboxylic acid]",> 2
12,"O=C(O)C1CCN(c2nc(COCC(F)(F)F)cnc2-c2ccc(OC3CC3)c(F)c2)CC1 [Compound 76, 1-(3-(4-cyclopropoxy-3-fluorophenyl)-6-((2,2,2-trifluoroethoxy)methyl)pyrazin-2-yl)piperidine-4-carboxylic acid]",0.5 to 2
13,"O=C(O)C1CCN(c2nc(COCC(F)(F)F)cnc2-c2ccc(OCC3CC3)cc2)CC1 [Compound 77, 1-(3-(4-(cyclopropylmethoxy)phenyl)-6-((2,2,2-trifluoroethoxy)methyl)pyrazin-2-yl)piperidine-4-carboxylic acid]",> 2
14,"O=C(O)C1CCN(c2nc(COCC(F)(F)F)cnc2-c2ccc(OCC3CC3)c(F)c2)CC1 [Compound 78, 1-(3-(4-(cyclopropylmethoxy)-3-fluorophenyl)-6-((2,2,2-trifluoroethoxy)methyl)pyrazin-2-yl)piperidine-4-carboxylic acid]",> 2
15,"CCCCc1cnc(-c2ccc3c(c2)CC(C)(C)O3)c(N2CCC(C(=O)O)CC2)n1 [Compound 79, 1-(6-butyl-3-(2,2-dimethyl-2,3-dihydrobenzofuran-5-yl)pyrazin-2-yl)piperidine-4-carboxylic acid]",> 2
16,"CN(C)S(=O)(=O)NC(=O)C1CCN(c2nc(COCC(F)(F)F)cnc2-c2cc(F)c3occc3c2)CC1 [Compound 80, N-(N,N-dimethylsulfamoyl)-1-(3-(7-fluorobenzofuran-5-yl)-6-((2,2,2-trifluoroethoxy)methyl)pyrazin-2-yl)piperidine-4-carboxamide]",0.5 to 2
17,"O=c1[nH]c(C2CCN(c3nc(COCC(F)(F)F)cnc3-c3cc(F)c4occc4c3)CC2)ns1 [Compound 81, 3-(1-(3-(7-fluorobenzofuran-5-yl)-6-((2,2,2-trifluoroethoxy)methyl)pyrazin-2-yl)piperidin-4-yl)-1,2,4-thiadiazol-5(4H)-one]",0.5 to 2
18,"O=c1[nH]c(C2CCN(c3nc(COCC(F)(F)F)cnc3-c3cc(F)c4occc4c3)CC2)no1 [Compound 82, 3-(1-(3-(7-fluorobenzofuran-5-yl)-6-((2,2,2-trifluoroethoxy)methyl)pyrazin-2-yl)piperidin-4-yl)-1,2,4-oxadiazol-5(4H)-one]",< 0.5
19,"O=S1NC(C2CCN(c3nc(COCC(F)(F)F)cnc3-c3cc(F)c4occc4c3)CC2)=NO1 (stereo not drawn) [Compound 83, 4-(1-(3-(7-fluorobenzofuran-5-yl)-6-((2,2,2-trifluoroethoxy)methyl)pyrazin-2-yl)piperidin-4-yl)-3H-1,2,3,5-oxathiadiazole 2-oxide]",0.5 to 2
20,"CS(=O)(=O)CCc1cnc(-c2cc(F)c3occc3c2)c(N2CCC(C(=O)O)CC2)n1 [Compound 84, 1-(3-(7-fluorobenzofuran-5-yl)-6-(2-(methylsulfonyl)ethyl)pyrazin-2-yl)piperidine-4-carboxylic acid]",> 2
21,"COCCOc1ccc(-c2ncc(CCS(C)(=O)=O)nc2N2CCC(C(=O)O)CC2)cc1 [Compound 85, 1-(3-(4-(2-methoxyethoxy)phenyl)-6-(2-(methylsulfonyl)ethyl)pyrazin-2-yl)piperidine-4-carboxylic acid]",> 2
22,"COCCOc1ccc(-c2ncc(CCC(F)(F)F)nc2N2CCC(C(=O)O)CC2)cc1 [Compound 86, 1-(3-(4-(2-methoxyethoxy)phenyl)-6-(3,3,3-trifluoropropyl)pyrazin-2-yl)piperidine-4-carboxylic acid]",0.5 to 2
23,"O=C(O)C1CCN(c2nc(CCC(F)(F)F)cnc2-c2cnc3c(c2)CCO3)CC1 [Compound 87, 1-(3-(2,3-dihydrofuro[2,3-b]pyridin-5-yl)-6-(3,3,3-trifluoropropyl)pyrazin-2-yl)piperidine-4-carboxylic acid]",> 2
24,"O=C(O)CC1CCN(c2nc(CCC(F)(F)F)cnc2-c2cc(F)c3occc3c2)C1 (stereo not drawn) [Compound 88, 2-(1-(3-(7-fluorobenzofuran-5-yl)-6-(3,3,3-trifluoropropyl)pyrazin-2-yl)pyrrolidin-3-yl)acetic acid]",0.5 to 2
25,"O=C(O)CCC1CN(c2nc(CCC(F)(F)F)cnc2-c2cc(F)c3occc3c2)C1 [Compound 89, 3-(1-(3-(7-fluorobenzofuran-5-yl)-6-(3,3,3-trifluoropropyl)pyrazin-2-yl)azetidin-3-yl)propanoic acid]",0.5 to 2
26,"O=C(O)CC1CN(c2nc(CCC(F)(F)F)cnc2-c2cc(F)c3occc3c2)C1 [Compound 90, 2-(1-(3-(7-fluorobenzofuran-5-yl)-6-(3,3,3-trifluoropropyl)pyrazin-2-yl)azetidin-3-yl)acetic acid]",0.5 to 2
27,"O=C(O)C1(O)CCN(c2nc(CCC(F)(F)F)cnc2-c2cc(F)c3occc3c2)CC1 [Compound 91, 1-(3-(7-fluorobenzofuran-5-yl)-6-(3,3,3-trifluoropropyl)pyrazin-2-yl)-4-hydroxypiperidine-4-carboxylic acid]",< 0.5
28,"COC1(C(=O)O)CCN(c2nc(CCC(F)(F)F)cnc2-c2cc(F)c3occc3c2)CC1 [Compound 92, 1-(3-(7-fluorobenzofuran-5-yl)-6-(3,3,3-trifluoropropyl)pyrazin-2-yl)-4-methoxypiperidine-4-carboxylic acid]",0.5 to 2
29,"N#CC1(C(=O)O)CCN(c2nc(CCC(F)(F)F)cnc2-c2cc(F)c3occc3c2)CC1 [Compound 93, 4-cyano-1-(3-(7-fluorobenzofuran-5-yl)-6-(3,3,3-trifluoropropyl)pyrazin-2-yl)piperidine-4-carboxylic acid]",0.5 to 2
30,"O=C(O)C1C2CC1CN(c1nc(CCC(F)(F)F)cnc1-c1cc(F)c3occc3c1)C2 (stereo not drawn) [Compound 94, 3-(3-(7-fluorobenzofuran-5-yl)-6-(3,3,3-trifluoropropyl)pyrazin-2-yl)-3-azabicyclo[3.1.1]heptane-6-carboxylic acid]",0.5 to 2
